These results are taken from patent US9353104B2, “Substituted pyridizinone derivatives as PDE10 inhibitors” (priority 2013, dated 2016).

human PDE10A2, sequence (Q9Y233 267-1055): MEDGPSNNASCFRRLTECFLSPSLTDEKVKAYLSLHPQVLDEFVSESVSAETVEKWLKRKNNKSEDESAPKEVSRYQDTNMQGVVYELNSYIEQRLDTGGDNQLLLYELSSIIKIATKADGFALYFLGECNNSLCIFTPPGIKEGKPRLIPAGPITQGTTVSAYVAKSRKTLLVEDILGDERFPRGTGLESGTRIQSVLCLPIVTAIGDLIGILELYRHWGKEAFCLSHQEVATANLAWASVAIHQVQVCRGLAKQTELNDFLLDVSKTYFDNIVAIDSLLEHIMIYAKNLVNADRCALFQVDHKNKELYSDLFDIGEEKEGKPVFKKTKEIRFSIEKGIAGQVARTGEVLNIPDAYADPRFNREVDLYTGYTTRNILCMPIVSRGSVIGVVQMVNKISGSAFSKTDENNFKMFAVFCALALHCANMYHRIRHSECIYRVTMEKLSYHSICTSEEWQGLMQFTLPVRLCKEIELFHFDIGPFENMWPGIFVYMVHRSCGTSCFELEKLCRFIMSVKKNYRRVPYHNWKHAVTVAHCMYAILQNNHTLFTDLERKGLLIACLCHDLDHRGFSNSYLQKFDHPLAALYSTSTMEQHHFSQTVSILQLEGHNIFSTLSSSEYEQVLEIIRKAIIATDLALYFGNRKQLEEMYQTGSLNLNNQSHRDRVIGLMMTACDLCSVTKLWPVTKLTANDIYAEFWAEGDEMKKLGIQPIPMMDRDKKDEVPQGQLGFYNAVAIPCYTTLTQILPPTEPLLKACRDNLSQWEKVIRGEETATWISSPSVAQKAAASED

This test addresses human PDE10A2 (Homo sapiens (Human), UniProt Q9Y233). In words: PDE10 fluorescence polarization (IMAP FP) inhibition assay. Format: biochemical. The note with it: human PDE10A2 lysate, FAM-labeled cAMP 50 nM, room temperature; read-out: PDE10A Ki. Here is the method: The activity of the compounds in accordance with the present invention as PDE10 inhibitors may be readily determined without undue experimentation using a fluorescence polarization (FP) methodology that is well known in the art (Huang, W., et al., J. Biomol Screen, 2002, 7: 215). […] In a typical experiment the PDE10 inhibitory activity of the compounds of the present invention was determined in accordance with the following experimental method. PDE10A2 was amplified from human fetal brain cDNA (Clontech, Mountain View, Calif.) using a forward primer corresponding to nucleotides 56-77 of human PDE10A2 (Accession No. AF127480, Genbank Identifier 4894716), containing a Kozak consensus sequence, and a reverse primer corresponding to nucleotides 2406-2413 of human PDE10A2 (Accession No. AF127480, Genbank Identifier 4894716). Amplification with Easy-A polymerase (Stratagene, La Jolla, Calif.) was 95° C. for 2 minutes followed by thirty three cycles of 95° C. for 40 seconds, 55° C. for 30 seconds, and 72° C. for 2 minutes 48 seconds. Final extension was 72° C. for 7 minutes. The PCR product was TA cloned into pcDNA3.2-TOPO (Invitrogen, Carlsbad, Calif.) according to standard protocol. AD293 cells with 70-80% confluency were transiently transfected with human PDE10A2/pcDNA3.2-TOPO using Lipofectamine 2000 according to manufacturer specifications (Invitrogen, Carlsbad, Calif.). Cells were harvested 48 hours post-transfection and lysed by sonication (setting 3, 10×5 sec pulses) in a buffer containing 20 mM HEPES, 1 mM EDTA and protease inhibitor cocktail (Roche). Lysate was collected by centrifugation at 75,000×g for 20 minutes. Supernatant containing the cytoplasmic fraction was used for evaluation of PDE10A2 activity. The fluorescence polarization assay for cyclic nucleotide phosphodiesterases was performed using an IMAP® FP kit supplied by Molecular Devices, Sunnyvale, Calif. (product #R8139). IMAP® technology has been applied previously to phosphodiesterase assays (Huang, W., et al., J. Biomol Screen, 2002, 7: 215). Assays were performed at room temperature in 384-well microtiter plates with an incubation volume of 20.2 μL. Solutions of test compounds were prepared in DMSO and serially diluted with DMSO to yield 8 μL of each of 10 solutions differing by 3-fold in concentration, at 32 serial dilutions per plate. 100% inhibition is determined using a known PDE10 inhibitor, which can be any compound that is present at 5,000 times its Ki value in the assay described as follows, such as papaverine (see Siuciak, et al. Neuropharmacology (2006) 51:386-396; Becker, et al. Behav Brain Res (2008) 186(2):155-60; Threlfell, et al., J Pharmacol Exp Ther (2009) 328(3):785-795), 2-{4-[pyridin-4-yl-1-(2,2,2-trifluoroethyl)-1H-pyrazol-3-yl]phenoxymethyl}quinoline succinic acid or 2-[4-(1-methyl-4-pyridin-4-yl-1H-pyrazol-3-yl)-phenoxymethyl]quinoline succinic acid (see Schmidt, et al. J Pharmacol Exp Ther (2008) 325:681-690; Threlfell, et al., J Pharmacol Exp Ther (2009) 328(3): 785-795). 0% of inhibition is determined by using DMSO (1% final concentrations).
A Labcyte Echo 555 (Labcyte, Sunnyvale, Calif.) is used to dispense 200 nL from each well of the titration plate to the 384 well assay plate. A solution of enzyme (1/1600 dilution from aliquots; sufficient to produce 20% substrate conversion) and a separate solution of FAM-labeled cAMP PDE from Molecular Devices (product #R7506), at a final concentration of 50 nM are made in the assay buffer (10 mM Tris HCl, pH 7.2, 10 mM MgCl2, 0.05% NaN3 0.01% Tween-20, and 1 mM DTT). The enzyme and the substrate are then added to the assay plates in two consecutive additions of 10 μL, and then shaken to mix. The reaction is allowed to proceed at room temperature for 30 minutes. A binding solution is then made from the kit components, comprised of 80% Solution A, 20% Solution B and binding reagent at a volume of 1/600 the total binding solution.
For orientation: Fluorescence polarisation rises when a labelled molecule tumbles more slowly, as on binding a larger partner.
The Ki is the dissociation constant of the complex between target and ligand, obtained from inhibition or displacement. Consider `Cc1cnc(CNc2cc(OC[C@H]3C[C@@H]3c3ccn(C)n3)nn(C)c2=O)s1` [Example 26, 2-methyl-6-(((1S,2S)-2-(1-methyl-1H-pyrazol-3-yl)cyclopropyl)methoxy)-4-((5-methylthiazol-2-yl)methylamino)pyridazin-3(2H)-one], for which the Ki stood at 0.097 nM.
To `Cn1cc(CNc2cc(OC[C@H]3C[C@@H]3c3ccc(Cl)cn3)nn(C)c2=O)cn1` [Example 27, 6-(((1S,2S)-2-(5-chloro-pyridin-2-yl)cyclopropyl)-methoxy)-2-methyl-4-((1-methyl-1H-pyrazol-4-yl)methylamino)pyridazin-3(2H)-one] belongs 0.34 nM.
To `Cc1cc(CNc2cc(OC[C@H]3C[C@@H]3c3ccc(OC(F)F)cn3)nn(C)c2=O)n(C)n1` [Example 28, 6-(((1S,2S)-2-(5-(difluoro-methoxy)pyridin-2-yl)-cyclopropyl)-methoxy)-4-((1,3-dimethyl-1H-pyrazol-5-yl)methyl-amino)-2-methylpyridazin-3(2H)one] belongs 0.046 nM.
Take `Cc1ncc(CNc2cc(OC[C@H]3C[C@@H]3c3ccc(OC(F)F)cn3)nn(C)c2=O)s1` [Example 29, 6-(((1S,2S)-2-(5-(difluoromethoxy)pyridin-2-yl)cyclopropyl)-methoxy)-2-methyl-4-((2-methylthiazol-5-yl)methyl-amino)pyridazin-3(2H)one]: the Ki worked out at 0.109 nM.
Take `Cn1cc(CNc2cc(OC[C@H]3C[C@@H]3c3ccc(OC(F)F)cn3)nn(C)c2=O)cn1` [Example 30, 6-(((1S,2S)-2-(5-(difluoromethoxy)pyridin-2-yl)cyclopropyl)methoxy)-2-methyl-4-((1-methyl-1H-pyrazol-4-yl)methylamino)pyridazin-3(2H)-one]: the Ki was determined as 0.552 nM.
For the compound `Cc1ccc([C@H]2C[C@@H]2COc2cc(NCc3ncc(C)s3)c(=O)n(C)n2)nc1` [Example 31, 2-methyl-6-(((1S,2S)-2-(5-methylpyridin-2-yl)cyclopropyl)methoxy)-4-((5-methylthiazol-2-yl)methylamino)pyridazin-3(2H)-one], the Ki came out at 0.007 nM.
Under `Cc1cnc(CNc2cc(OC[C@H]3C[C@@H]3c3ccc(F)cn3)nn(C)c2=O)s1` [Example 32, 6-(((1S,2S)-2-(5-fluoropyridin-2-yl)cyclopropyl)methoxy)-2-methyl-4-((5-methylthiazol-2-yl)methylamino)pyridazin-3(2H)-one] stands 0.176 nM.
To `Cc1cc(CNc2cc(OC[C@H]3C[C@@H]3c3ccc(Cl)cn3)nn(C)c2=O)n(C)n1` [Example 33, 6-(((1S,2S)-2-(5-chloropyridin-2-yl)cyclopropyl)methoxy)-4-((1,3-dimethyl-1H-pyrazol-5-yl)methylamino)-2-methylpyridazin-3(2H)-one] belongs 0.02 nM; to `Cc1ncc(CNc2cc(OC[C@H]3C[C@@H]3c3ccc(Cl)cn3)nn(C)c2=O)s1` [Example 34, 6-(((1S,2S)-2-(5-chloropyridin-2-yl)cyclopropyl)methoxy)-2-methyl-4-((2-methylthiazol-5-yl)methylamino)pyridazin-3(2H)-one], 0.064 nM; to `Cc1ccc([C@H]2C[C@@H]2COc2cc(NCc3c(Cl)c(C)nn3C)c(=O)n(C)n2)nc1` [Example 35, 4-((4-chloro-1,3-dimethyl-1H-pyrazol-5-yl)methylamino)-2-methyl-6-(((1S,2S)-2-(5-methylpyridin-2-yl)cyclopropyl)methoxy)-pyridazin-3(2H)-one], 0.476 nM.
To `Cc1nnc(CN(C)c2cc(OC[C@H]3C[C@@H]3c3ccc4ccccc4n3)nn(C)c2=O)s1` [Example 36, 2-methyl-4-(methyl((5-methyl-1,3,4-thiadiazol-2-yl)methyl)amino)-6-(((1S,2S)-2-(quinolin-2-yl)cyclopropyl)methoxy)-pyridazin-3(2H)-one] belongs 0.911 nM; to `COc1ccc([C@H]2C[C@@H]2COc2cc(NCc3cn(C)nc3C)c(=O)n(C)n2)nc1` [Example 37, 4-((1,3-dimethyl-1H-pyrazol-4-yl)methyl-amino)-6-(((1S,2S)-2-(5-methoxypyridin-2-yl)cyclopropyl)methoxy)-2-methylpyridazin-3(2H)-one], 0.009 nM.
